Series [1] concerns C. albicans ATCC 64124 (strain B). Kind of series: microbe, parasite or virus in culture. Format: cell-based, Candida albicans. The following applies: strain B; compounds 1-4n and AmB; 48 h, RPMI 1640. The procedure, abridged: (§1)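 Broth microdilution per CLSI M27-A3 with minor modifications, in RPMI 1640 buffered to pH 7.0 with 0.165 M MOPS. Yeast inocula were grown in potato dextrose broth, diluted into RPMI to 5×10^3 CFU/mL, and exposed to two-fold dilutions from 12.5-0.02 μg/mL for 48 h at 35° C.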

Series [2] deals with C. albicans ATCC 90819(R) (strain D). Kind of series: microbe, parasite or virus in culture. Format: cell-based, Candida albicans. As to conditions: strain D; compounds 1-4n and AmB; 48 h, RPMI 1640. The procedure, abridged:
as §1

The test system of series [3] is C. albicans ATCC MYA-1003(R) (strain G). Kind of series: microbe, parasite or virus in culture. Format: cell-based, Candida albicans. As to conditions: strain G; compounds 1-4n and AmB; 48 h, RPMI 1640. The essentials: as §1
In series [4] the test system is C. albicans ATCC MYA-1237(R) (strain F). Kind of series: microbe, parasite or virus in culture. Format: cell-based, Candida albicans. As to conditions: strain F; compounds 1-4n and AmB; 48 h, RPMI 1640. The procedure, abridged: as §1
Series [5] relates to Candida albicans ATCC 10231 (strain A). Kind of series: Antifungal MIC determination (CLSI M27-A3, 96-well). Format: cell-based. The following applies: strain A; compounds 1-4n and AmB; 48 h, RPMI 1640. The essentials: as §1
Series [6] relates to Candida glabrata ATCC 2001 (strain H). The description is as above. Format: cell-based. As to conditions: strain H; compounds 1-4n and AmB; 48 h, RPMI 1640. The procedure, abridged:
as §1

The subject of series [7] is Candida krusei ATCC 6258 (strain I). The series is described as above. The following applies: strain I; compounds 1-4n and AmB; 48 h, RPMI 1640. Format: cell-based. The procedure, abridged: as §1
Series [8] concerns Candida parapsilosis ATCC 22019 (strain J). The series is described as above. Format: cell-based. The following applies: strain J; compounds 1-4n and AmB; 48 h, RPMI 1640. The essentials:
as §1

In a further series the test system is Candida strains (A-J). Nature of the series: Antifungal MIC, summary over panel of Candida strains. Format: cell-based. The method, then: Fungal MIC determination experiments were performed using untreated 96-well plates (Corning). Cells were counted either by using a hemocytometer (Hausser Scientific, Horsham, Pa., USA) or by measuring optical density at attenuance of 600 nm (OD600) by using a Genesys 20 spectrophotometer (Thermo Scientific, Waltham, Mass., USA). Spectrophotometric and colorimetric measurements in 96-well plates were performed using a SpectraMax M5 spectrometer (Molecular Devices, Sunnyvale, Calif., USA).
Yeast strains Candida albicans ATCC 10231 (strain A), C. albicans ATCC 64124 (strain B), and C. albicans ATCC MYA-2876(S) (strain C) were kindly provided by Dr. Jon Y. Takemoto (Utah State University, Logan, UT, USA). C. albicans ATCC MYA-90819(R) (strain D), C. albicans ATCC MYA-2310(S) (strain E), C. albicans ATCC 1237(R) (strain F), C. albicans ATCC MYA-1003(R) (strain G), Candida glabrata ATCC 2001 (strain H), Candida krusei ATCC 6258 (strain I), and Candida parapsilosis ATCC 22019 (strain J) were obtained from the American Type Culture Collection (ATCC, Manassas, Va., USA). The (S) and (R) indicate that ATCC reports these strains to be susceptible (S) and resistant (R) to ITC and FLC. The filamentous fungal strains Aspergillus flavus ATCC MYA-3631 (strain K), and Aspergillus terreus ATCC MYA-3633 (strain M) were also obtained from the American Type Culture Collection (ATCC, Manassas, Va., USA). Aspergillus nidulans ATCC 38163 (strain L) was kindly provided by Dr. Jon S. Thorson (University of Kentucky, Lexington, Ky., USA), respectively. Yeast strains were cultured at 35° C. Filamentous fungal strains were cultured at 25° C. and the spores were harvested. All fungal strains were cultured in RPMI 1640 medium (catalog # R6504, Sigma-Aldrich Chemical Co., St. Louis, Mo.) buffered to pH 7.0 with 0.165 M morpholinepropanesulfonic acid (MOPS) buffer (Sigma-Aldrich Chemical Co.).
The MIC values against fungal strains were determined based on a previously published protocol. MIC values for ebsulfur (2a) analogues against fungal cells were evaluated in 96-well plates as described in the CLSI document M27-A3 with minor modifications. […] Therefore, potato dextrose broth (PDB) was used to grow the yeast inocula of all strains tested, which were later diluted in RPMI 1640 medium to perform determination of MIC values. […] The tested compounds (10 mg/mL) were diluted to the working stocks (500 μg/mL) by addition of DMSO. Two-fold serial dilution of the working stocks was prepared by addition of RPMI 1640 medium (100 μL) and cell suspension (100 μL) to 96-well microtiter plate to achieve final drug and inoculum concentrations ranging from 12.5-0.02 μg/mL and 5×10^3 CFU/mL, respectively. Plates were incubated for 48 h at 35° C. […]

The subject of the next series is J774A.1 cell line. As to conditions: for cell death: J774, 10 μg/mL, 24 h. The protocol: The human embryonic kidney cell line HEK-293 (ATCC CRL-1573) and the murine macrophage cell line J774A.1 (ATCC TIB-67) were kindly provided by Dr. Matthew S. Gentry and Dr. David J. Feola (University of Kentucky, Lexington, Ky., USA), respectively. The HEK-293 cell line was grown in Dulbecco's Modified Eagle's Medium (DMEM) (ATCC, Manassas, Va., USA) with 10% fetal bovine serum (FBS) (ATCC, Manassas, Va., USA) and 1% Pen/Strep (ATCC, Manassas, Va., USA). The J774A.1 cell line was grown under the same conditions, except that the medium used was a different type of DMEM (catalog #30-2002, ATCC, Manassas, Va., USA). The HEK-293 cell line was passaged by trypsinization with 0.05%-trypsin-0.53 mM EDTA (ATCC, Manassas, Va., USA). The J774A.1 cell line was passaged mechanically by cell scrapers (ATCC, Manassas, Va., USA). Cell confluency was observed by using a Nikon Eclipse TS100 microscope (Minato, Tokyo, Japan).
Mammalian cytotoxicity assays were performed as previously described with minor modifications (FIG. 4). The HEK-293 and J774A.1 cell lines were grown in various Dulbecco's Modified Eagle's Medium (DMEM) with 10% fetal bovine serum (FBS) and 1% Pen/Strep at 37° C. with 5% CO2. The confluent cells were either trypsinized with 0.05%-trypsin-0.53 mM EDTA (HEK-293 cell line) or mechanically removed by cell scrapers (J774A.1 cell line). […] The cells were incubated with tested compounds for another 24 h at 37° C. with 5% CO2. Cell survival was assessed by resazurin assay. Each well was treated with resazurin (10 μL of a 25 mg/L solution) for 6 h. […] Dead cells remain purple/blue. The percentage of survival rate was calculated by using the following formula: [(test value)/(control value)×100].

Structures are written as SMILES. In brackets after ≈: the same amount, converted by molar mass.

In the case of `CC(C)(C)n1sc2ccccc2c1=O` [Compound 3g], the MIC-0 in series [1] is 1.56 µg/mL (≈ 7.53 µM); in series [2], 1.56 µg/mL (≈ 7.53 µM); in series [3], 1.56 µg/mL (≈ 7.53 µM); in series [4], 1.56 µg/mL (≈ 7.53 µM); in series [5], 0.78 µg/mL (≈ 3.76 µM); in [6] it was 1.56 µg/mL (≈ 7.53 µM). Besides, the MIC-0 in series [7] is 0.78 µg/mL (≈ 3.76 µM); in series [8], 1.56 µg/mL (≈ 7.53 µM). In addition, the “MIC values against Candida strains, range” value against Candida strains (A-J) (Candida strains A-J) lay in the range of 0.78 to 3.13 µg/mL. The “concentration without any toxicity” value in the series with J774A.1 cell line (J774, 24 h) was “up to 5 μg/mL”.
On to `CCCCCCn1sc2ccccc2c1=O` [Compound 3b], for which the MIC-0 in series [1] was found to be 1.56 µg/mL (≈ 6.63 µM); in series [2], 1.56 µg/mL (≈ 6.63 µM); in [3] it was 0.78 µg/mL (≈ 3.31 µM); in series [4], 1.56 µg/mL (≈ 6.63 µM); in series [5], 1.56 µg/mL (≈ 6.63 µM); in series [6], 1.56 µg/mL (≈ 6.63 µM). In addition, the MIC-0 in series [7] and in series [8] was 0.78 µg/mL (≈ 3.31 µM) in each case. In addition, the “MIC values against clinically relevant Candida strains” value against Candida strains (A-J) came to 0.78 µg/mL (≈ 3.31 µM). Also, in the series on J774A.1 cell line, the cell death result is reported as “approximately 50%”.
`CCCCCn1sc2ccccc2c1=O` [Compound 3a]: the MIC-0 was found to be 0.39 µg/mL (≈ 1.76 µM) in series [1]; 1.56 µg/mL (≈ 7.05 µM) in series [2]; 0.78 µg/mL (≈ 3.52 µM) in series [3]; 0.78 µg/mL (≈ 3.52 µM) in series [4]; 1.56 µg/mL (≈ 7.05 µM) in series [5]; 1.56 µg/mL (≈ 7.05 µM) in series [6]. Further, the MIC-0 in series [7] and in series [8] was 0.78 µg/mL (≈ 3.52 µM) each time. Further, the “MIC values against clinically relevant Candida strains” value in the series with Candida strains (A-J) is 0.78 µg/mL (≈ 3.52 µM). In the series on Candida strains (A-J) (anti-Candida), the “fold more active than AmB” value is 1.25- to 10 fold. Further, in the series with Candida strains (A-J) (anti-Candida, except against strain J), the “fold more potent in MIC values than FLC” value is listed as 20- to 320 fold. The cell death result in the series on J774A.1 cell line was “approximately 50%”.

The values are drawn from patent US10544112B2, “Identification of ebsulfur analogues with broad-spectrum antifungal activity” (priority 2017, dated 2020).
